Measurements reported in US11951109B2, “EZH2 inhibitors for treating lymphoma” (Epizyme, Inc., priority 2015, dated 2024).

Assays:
[1] = system: RC-K8; assay: Combination of EPZ-6438 and other therapeutic agents (4+3 model), RC-K8; details: WT EXH2 ABC
[2] = system: OCI-LY3; assay: Combination of EPZ-6438 and other therapeutic agents (4+3 model), OCI-LY3; details: WT EXH2 ABC
[3] = system: SU-DHL-6; assay: Combination of EPZ-6438 and other therapeutic agents (4+3 model), SU-DHL-6; details: Mutant EZH2 GCB
[4] = system: OCI-LY19; assay: Combination of EPZ-6438 and other therapeutic agents (4+3 model), OCI-LY19; details: WT EZH2 GCB; 4+3 model
[5] = system: WSU-DLCL2; assay: Combination of EPZ-6438 and other therapeutic agents (4+3 model), WSU-DLCL2; details: Mutant EZH2 GCB; EPZ-6438 4 days then co-treatment 3 days (4+3 model)
[6] = system: SU-DHL-10; assay: Combination of EPZ-6438 and other therapeutic agents (4+3 model), SU-DHL-10; details: Mutant EZH2 GCB
[7] = system: KARPAS-422; assay: Combination of EPZ-6438 and other therapeutic agents (4+3 model), KARPAS-422; details: Mutant EZH2 GCB
[8] = system: SUDHL5; assay: Combination of EPZ-6438 and other therapeutic agents (4+3 model), SUDHL5; details: WT EZH2 GCB
[9] = system: TMD8; assay: Combination of EPZ-6438 and other therapeutic agents (4+3 model), TMD8; details: WT EXH2 ABC
[10] = system: SUDHL2; assay: Combination of EPZ-6438 and other therapeutic agents (4+3 model), SUDHL2; details: WT EXH2 ABC
[11] = system: DOHH2; assay: Combination of EPZ-6438 and other therapeutic agents (4+3 model), DOHH2; assay type: cell-based; details: WT EZH2 GCB
[12] = system: HT; assay: Combination of EPZ-6438 and other therapeutic agents (4+3 model), HT; details: WT EZH2 GCB
[13] = system: Farage; assay: Combination of EPZ-6438 and other therapeutic agents (4+3 model), Farage; details: WT EZH2 GCB
[14] = system: OCI-LY7; assay: Combination of EPZ-6438 and other therapeutic agents (4+3 model), OCI-LY7; details: WT EZH2 GCB

CC1(C)CCC(CN2CCN(c3ccc(C(=O)NS(=O)(=O)c4ccc(NCC5CCOCC5)c([N+](=O)[O-])c4)c(Oc4cnc5[nH]ccc5c4)c3)CC2)=C(c2ccc(Cl)cc2)C1 [ABT-199]
combination effect with EPZ-6438, RC-K8 [1]: S | combination effect with EPZ-6438, OCI-LY3 [2]: S | combination effect with EPZ-6438, SU-DHL-6 [3]: ADD. | combination effect with EPZ-6438, OCI-LY19 [4]: S | combination effect with EPZ-6438, WSU-DLCL2 [5]: S | combination effect with EPZ-6438, SU-DHL-10 [6]: ADD. | combination effect with EPZ-6438, KARPAS-422 [7]: S

COc1cc(Nc2ncc3c(n2)-c2ccc(Cl)cc2C(c2c(F)cccc2OC)=NC3)ccc1C(=O)O [Alisertib]
combination effect with EPZ-6438, SUDHL5 [8]: ADD. | combination effect with EPZ-6438, WSU-DLCL2 [5]: ADD. | combination effect with EPZ-6438, SU-DHL-10 [6]: ADD.

Cc1nc(Nc2ncc(C(=O)Nc3c(C)cccc3Cl)s2)cc(N2CCN(CCO)CC2)n1 [Dasatinib]
combination effect with EPZ-6438, TMD8 [9]: S | combination effect with EPZ-6438, SUDHL5 [8]: S | combination effect with EPZ-6438, WSU-DLCL2 [5]: S | combination effect with EPZ-6438, SU-DHL-10 [6]: S

Cn1cc(C2=C(c3cn(C4CCN(Cc5ccccn5)CC4)c4ccccc34)C(=O)NC2=O)c2ccccc21 [Enzastaurin]
combination effect with EPZ-6438, SUDHL5 [8]: ADD. | combination effect with EPZ-6438, WSU-DLCL2 [5]: ADD. | combination effect with EPZ-6438, SU-DHL-10 [6]: S

COc1cc([C@@H]2c3cc4c(cc3[C@@H](O[C@@H]3O[C@@H]5CO[C@@H](C)O[C@H]5[C@H](O)[C@H]3O)[C@H]3COC(=O)[C@H]23)OCO4)cc(OC)c1O [Etoposide]
combination effect with EPZ-6438, SUDHL5 [8]: S | combination effect with EPZ-6438, WSU-DLCL2 [5]: S | combination effect with EPZ-6438, KARPAS-422 [7]: S

Cc1cnc(Nc2ccc(OCCN3CCCC3)cc2)nc1Nc1cccc(S(=O)(=O)NC(C)(C)C)c1 [Fedratinib]
combination effect with EPZ-6438, SUDHL2 [10]: ADD.

CC(C)NC[C@@H](C(=O)N1CCN(c2ncnc3c2[C@H](C)C[C@H]3O)CC1)c1ccc(Cl)cc1 [GDC0068, Ipatasertib]
combination effect with EPZ-6438, SUDHL5 [8]: S | combination effect with EPZ-6438, WSU-DLCL2 [5]: S | combination effect with EPZ-6438, KARPAS-422 [7]: S

CCn1c(-c2nonc2N)nc2c(C#CC(C)(C)O)ncc(OC[C@H]3CCCNC3)c21 [GSK690693]
combination effect with EPZ-6438, SUDHL5 [8]: S | combination effect with EPZ-6438, WSU-DLCL2 [5]: S | combination effect with EPZ-6438, KARPAS-422 [7]: S

CCn1cc(-c2ccnc3[nH]c(-c4cccc(CN(C)C)c4)cc23)c(-c2ccc(NC(=O)N(C)C)cc2)n1 [GSK1070916]
combination effect with EPZ-6438, WSU-DLCL2 [5]: S | combination effect with EPZ-6438, SU-DHL-10 [6]: ADD.

COc1ncc(-c2ccc3nccc(-c4ccnnc4)c3c2)cc1NS(=O)(=O)c1ccc(F)cc1F [GSK2126458, Omipalisib]
combination effect with EPZ-6438, SUDHL5 [8]: S | combination effect with EPZ-6438, WSU-DLCL2 [5]: S | combination effect with EPZ-6438, KARPAS-422 [7]: S

CCOC(=O)CCNc1cc(N2CCc3ccccc3CC2)nc(-c2ccccn2)n1 [GSK J4]
combination effect with EPZ-6438, DOHH2 [11]: ADD. | combination effect with EPZ-6438, RC-K8 [1]: ADD. | combination effect with EPZ-6438, SUDHL2 [10]: ADD. | combination effect with EPZ-6438, SU-DHL-6 [3]: ADD. | combination effect with EPZ-6438, OCI-LY19 [4]: ADD. | combination effect with EPZ-6438, WSU-DLCL2 [5]: ADD.

CC[C@H](Nc1ncnc2[nH]cnc12)c1nc2cccc(F)c2c(=O)n1-c1ccccc1 [Idelalisib]
combination effect with EPZ-6438, HT [12]: S | combination effect with EPZ-6438, TMD8 [9]: S | combination effect with EPZ-6438, RC-K8 [1]: S | combination effect with EPZ-6438, SUDHL5 [8]: S | combination effect with EPZ-6438, Farage [13]: S | combination effect with EPZ-6438, OCI-LY7 [14]: S | combination effect with EPZ-6438, OCI-LY3 [2]: S | combination effect with EPZ-6438, SU-DHL-6 [3]: S | combination effect with EPZ-6438, WSU-DLCL2 [5]: S | combination effect with EPZ-6438, SU-DHL-10 [6]: S | combination effect with EPZ-6438, KARPAS-422 [7]: S

Cc1sc2c(c1C)C(c1ccc(Cl)cc1)=N[C@@H](CC(=O)OC(C)(C)C)c1nnc(C)n1-2 [JQ1]
combination effect with EPZ-6438, RC-K8 [1]: S | combination effect with EPZ-6438, SUDHL2 [10]: S | combination effect with EPZ-6438, SU-DHL-6 [3]: S | combination effect with EPZ-6438, OCI-LY19 [4]: S | combination effect with EPZ-6438, WSU-DLCL2 [5]: S | combination effect with EPZ-6438, KARPAS-422 [7]: S

Nc1cccc2c1CN(C1CCC(=O)NC1=O)C2=O (stereo not shown) [Lenalidomide]
combination effect with EPZ-6438, RC-K8 [1]: S

NC1(c2ccc(-c3nc4ccn5c(=O)[nH]nc5c4cc3-c3ccccc3)cc2)CCC1 [MK-2206]
combination effect with EPZ-6438, HT [12]: S | combination effect with EPZ-6438, TMD8 [9]: S | combination effect with EPZ-6438, RC-K8 [1]: S | combination effect with EPZ-6438, SUDHL5 [8]: S | combination effect with EPZ-6438, Farage [13]: S | combination effect with EPZ-6438, OCI-LY7 [14]: S | combination effect with EPZ-6438, OCI-LY3 [2]: S | combination effect with EPZ-6438, SU-DHL-6 [3]: S | combination effect with EPZ-6438, OCI-LY19 [4]: S | combination effect with EPZ-6438, WSU-DLCL2 [5]: S | combination effect with EPZ-6438, SU-DHL-10 [6]: S | combination effect with EPZ-6438, KARPAS-422 [7]: S

CN(Cc1cnc2nc(N)nc(N)c2n1)c1ccc(C(=O)N[C@@H](CCC(=O)O)C(=O)O)cc1 [Methotrexate]
combination effect with EPZ-6438, DOHH2 [11]: ANTAG. | combination effect with EPZ-6438, RC-K8 [1]: ANTAG. | combination effect with EPZ-6438, SUDHL2 [10]: ANTAG. | combination effect with EPZ-6438, OCI-LY19 [4]: ANTAG. | combination effect with EPZ-6438, WSU-DLCL2 [5]: ANTAG.

CC1(C)CCC(c2ccc(Cl)cc2)=C(CN2CCN(c3ccc(C(=O)NS(=O)(=O)c4ccc(N[C@H](CCN5CCOCC5)CSc5ccccc5)c(S(=O)(=O)C(F)(F)F)c4)cc3)CC2)C1 [Navitoclax]
combination effect with EPZ-6438, RC-K8 [1]: S | combination effect with EPZ-6438, OCI-LY7 [14]: S | combination effect with EPZ-6438, OCI-LY3 [2]: S | combination effect with EPZ-6438, SU-DHL-6 [3]: S | combination effect with EPZ-6438, OCI-LY19 [4]: S | combination effect with EPZ-6438, WSU-DLCL2 [5]: S | combination effect with EPZ-6438, SU-DHL-10 [6]: S | combination effect with EPZ-6438, KARPAS-422 [7]: S

COC1=CC(c2cc3ccccc3[nH]2)=N/C1=C\c1[nH]c(C)cc1C [Obatoclax]
combination effect with EPZ-6438, SU-DHL-6 [3]: ADD. | combination effect with EPZ-6438, WSU-DLCL2 [5]: ADD. | combination effect with EPZ-6438, SU-DHL-10 [6]: ADD. | combination effect with EPZ-6438, KARPAS-422 [7]: S

CC(=O)c1c(C)c2cnc(Nc3ccc(N4CCNCC4)cn3)nc2n(C2CCCC2)c1=O [Palbociclib]
combination effect with EPZ-6438, SUDHL5 [8]: S | combination effect with EPZ-6438, WSU-DLCL2 [5]: S | combination effect with EPZ-6438, KARPAS-422 [7]: S

CN(C)C(=O)c1cc2cnc(Nc3ccc(N4CCNCC4)cn3)nc2n1C1CCCC1 [Ribociclib]
combination effect with EPZ-6438, SUDHL5 [8]: S | combination effect with EPZ-6438, WSU-DLCL2 [5]: S | combination effect with EPZ-6438, KARPAS-422 [7]: S

N#CC[C@H](C1CCCC1)n1cc(-c2ncnc3[nH]ccc23)cn1 [Ruxolitinib]
combination effect with EPZ-6438, TMD8 [9]: S | combination effect with EPZ-6438, SU-DHL-10 [6]: S

CNC(=O)c1cc(Oc2ccc(NC(=O)Nc3ccc(Cl)c(C(F)(F)F)c3)cc2)ccn1 [Sorafenib]
combination effect with EPZ-6438, WSU-DLCL2 [5]: ADD.

COc1cc(Nc2ncc(F)c(Nc3ccc4c(n3)NC(=O)C(C)(C)O4)n2)cc(OC)c1OC [Tamatinib]
combination effect with EPZ-6438, HT [12]: S | combination effect with EPZ-6438, TMD8 [9]: S | combination effect with EPZ-6438, SUDHL5 [8]: S | combination effect with EPZ-6438, Farage [13]: S | combination effect with EPZ-6438, SUDHL2 [10]: S | combination effect with EPZ-6438, OCI-LY7 [14]: S | combination effect with EPZ-6438, OCI-LY3 [2]: S | combination effect with EPZ-6438, SU-DHL-6 [3]: S | combination effect with EPZ-6438, WSU-DLCL2 [5]: S | combination effect with EPZ-6438, SU-DHL-10 [6]: S | combination effect with EPZ-6438, KARPAS-422 [7]: S

CC(=O)Nc1cccc(-n2c(=O)n(C3CC3)c(=O)c3c(Nc4ccc(I)cc4F)n(C)c(=O)c(C)c32)c1 [Trametinib]
combination effect with EPZ-6438, TMD8 [9]: S | combination effect with EPZ-6438, SUDHL5 [8]: S | combination effect with EPZ-6438, Farage [13]: S | combination effect with EPZ-6438, OCI-LY7 [14]: S | combination effect with EPZ-6438, OCI-LY3 [2]: S | combination effect with EPZ-6438, SU-DHL-6 [3]: S | combination effect with EPZ-6438, WSU-DLCL2 [5]: S | combination effect with EPZ-6438, SU-DHL-10 [6]: S | combination effect with EPZ-6438, KARPAS-422 [7]: S

CC(C)C[C@H](NC(=O)[C@H](Cc1ccccc1)NC(=O)c1cnccn1)B(O)O [Velcade]
combination effect with EPZ-6438, SU-DHL-6 [3]: ADD. | combination effect with EPZ-6438, WSU-DLCL2 [5]: ADD. | combination effect with EPZ-6438, SU-DHL-10 [6]: ADD.

CCCS(=O)(=O)Nc1ccc(F)c(C(=O)c2c[nH]c3ncc(-c4ccc(Cl)cc4)cc23)c1F [Vemurafenib]
combination effect with EPZ-6438, WSU-DLCL2 [5]: ADD.

OG-L002
combination effect with EPZ-6438, SUDHL2 [10]: ANTAG.

Rituximab: therapeutic agent combined with EPZ-6438; component of R-CHOP
combination effect with EPZ-6438, SU-DHL-6 [3]: S | combination effect with EPZ-6438, WSU-DLCL2 [5]: S
